Data reported in patent US9028845B2, “Chimeric immunomodulatory compounds and methods of using the same-IV” (Dynavax Technologies Corporation, priority 2001, dated 2015).
Marks after values point to notes of the source that are not given here.

What was measured:
[1] = system: mice; assay: Serum cytokines (IL-12 p40, IL-6, TNF-α) after subcutaneous injection in mice; type: in vivo; conditions: 20 ug subcutaneous, blood 2 hours later
Experimental: Blood was collected 2 hours later. For the LPS positive control group, mice were injected intraperitoneally with a 200 ul volume, and blood was collected 1.5 hours later (i.e., at the peak of LPS induced TNF-α activity). The blood was clotted and the serum was prepared and stored at −80° C. until assayed. Serum cytokines were assayed using Biosource cytoscreen kits for TNF-α and Pharmingen antibody pairs for mIL-6 and mIL-12. All samples were assayed in duplicate.

[2] = system: hepatitis B surface antigen (HBsAg); conditions: in vivo
[3] = system: mouse lung; assay: Induction of immune-associated genes in the mouse lung after intranasal treatment (quantitative PCR); type: in vivo, BALB/c mice; conditions: 20 ug intranasal, 6 hrs
Experimental: The genes evaluated included genes encoding cytokines, chemokines, cell surface molecules, transcription factors, metalloproteases, and other molecules. The study was performed at Northview Pacific Laboratories (Hercules, Calif.) with 6-8 week old female BALB/c mice from Jackson Labs (Bar Harbor, Me.). […] Therefore, at 6 hrs the lungs were harvested and snap-frozen in liquid nitrogen and stored at −80° C. for later use. Total RNA was isolated using RNeasy mini kits (Qiagen Inc., Valencia, Calif.). The RNA samples were DNAse-treated (Roche Diagnostics, Mannheim, Germany) and converted into cDNA using Superscript II Rnase H-Reverse Transcriptase (Invitrogen, Rockville Md.) as described in Scheerens et al., 2001, Eur. J. of Immunology 31:1465-74. The cDNA samples were pooled per group and in each pooled sample the expression of mRNA of 75 genes was measured using real-time quantitative PCR (ABI Prism 5700, Perkin Elmer Applied Biosystems) and syber green (Qiagen Inc.). In addition to the genes of interest, in each sample the mRNA expression of a housekeeping gene was measured (HPRT or ubiquitin). In order to correct for the amount of RNA in each sample, all data were calculated relative to the expression of the housekeeping gene.

[4] = system: CD19+ B cells; assay: Human B cell proliferation assay (3H-thymidine incorporation); conditions: 2 μg/ml; for cpm1 / cpm2 / cpm3 / mean cpm / mean of both: B cells
[5] = system: PBMCs; assay: Human PBMC proliferation assay (3H-thymidine incorporation); type: cell-based; conditions: Experiment A; for mean cpm: 2 μg/ml
[6] = system: human PBMCs; assay: Human PBMC cytokine response assay (IFN-γ and IFN-α in cell-free medium by ELISA), with or without cPLGA; type: cell-based;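 as to IFN-α (pg/ml) mean: 20 µg/mL compound for 24 hours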;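 as to IFN-γ (pg/ml) mean: 20 µg/mL compound for 24 hours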
[7] = Water solubility of spacer precursor (dialcohol form); type: physicochemical; conditions: tested as dialcohol precursor of the dodecyl spacer
Description: Thus, the definition of spacers excludes microcarriers or nanocarriers. […] The form of the spacer moiety used for testing its water solubility is generally its most closely related unactivated and unprotected spacer precursor molecule. For example, C-19 contains a spacer moiety including a dodecyl group with phosphorothioate diester linkages at the C-1 and C-12 positions, thereby connecting the spacer moiety to the nucleic acid moieties. […] These higher water solubility spacers include, without limitation, propane 1,3 diol; glycerol; butane-1,4-diol; pentane-1,5-diol; hexane-1,6-diol; triethylene glycol, tetraethylene glycol and HEG.

[8] = donor 28066, 20 ug/ml, 24 h, + PLGA = premixed with 100 μg/ml cPLGA
[9] = donor 28067, 20 ug/ml, 24 h, + PLGA = premixed with 100 μg/ml cPLGA
[10] = donor 28068, 20 ug/ml, 24 h, + PLGA = premixed with 100 μg/ml cPLGA
[11] = mean of Donors 1-2, 20 μg/ml, 24 h
[12] = mean of Donors 9-12, 20 μg/ml, 24 h
[13] = mean of donors 28065-28068, 20 ug/ml, 24 h, + PLGA = premixed with 100 μg/ml cPLGA
[14] = mean of donors 28185-28188, Table 15

## 5′-TCGTCGA-3′- C3-5′-ACGTTCG-3′-C3-5′-AGATGAT-3′ [Compound C-9]
[1]
  induction of serum IL-12 p40, IL-6 and TNF-α, in words: induced IL-12 p40, IL-6, and TNF-α
[2]
  Anti-HBsAg (mIU/ml) post-first, Mean: 68 mIU/ml
  Anti-HBsAg (mIU/ml) post-second, Mean: 4135** mIU/ml
[3]
  mRNA expression of IFN-alpha in the lung, in words: considerably higher mRNA expression of IFN-alpha
[3]; vs P-7 treated mice
  mRNA expression of immune-associated genes in the lung, in words: potently induce the expression of a variety of genes
[4]; 48 h plus 8 h 3H-thymidine pulse
  B cell proliferation, in words: cause B cells to proliferate
[4]; Donor 146, Experiment A
  cpm1: 35365 cpm
  cpm2: 42705 cpm
  cpm3: 45231 cpm
[4]; Donor 146 mean, Experiment A
  mean cpm: 41100 cpm
[4]; Donor 147, Experiment A
  cpm1: 55543 cpm
  cpm2: 49035 cpm
  cpm3: 44985 cpm
[4]; Donor 147 mean, Experiment A
  mean cpm: 49854 cpm
[4]; donor 121, Experiment B
  cpm1: 21938 cpm
  cpm2: 35400 cpm
  cpm3: 23877 cpm
[4]; donor 121 mean, Experiment B
  mean cpm: 27072 cpm
[4]; donor 194, Experiment B
  cpm1: 13660 cpm
  cpm2: 16717 cpm
  cpm3: 17866 cpm
[4]; donor 194 mean, Experiment B
  mean cpm: 16081 cpm
[4]; mean of Donors 146 and 147, Experiment A
  mean of both: 45477 cpm
[4]; mean of donors 121 and 194, Experiment B
  mean of both: 21576 cpm
[5]; Donor 146, 2 μg/ml
  cpm1: 55348 cpm
  cpm2: 24857 cpm
  cpm3: 39953 cpm
[5]; Donor 146 mean
  mean cpm: 40053 cpm
[5]; Donor 147, 2 μg/ml
  cpm1: 88106 cpm
  cpm2: 65413 cpm
  cpm3: 90665 cpm
[5]; Donor 147 mean
  mean cpm: 81395 cpm
[5]; mean of Donors 146 and 147, 2 μg/ml
  mean of both: 60724 cpm
[6]; Donor 1, 20 μg/ml, 24 h
  IFN-α (pg/ml) Donor 1: 142 pg/mL
  IFN-γ (pg/ml) Donor 1: 2157 pg/mL
[6]; Donor 2, 20 μg/ml, 24 h
  IFN-α (pg/ml) Donor 2: 0 pg/mL
  IFN-γ (pg/ml) Donor 2: 171 pg/mL
[6]; Donor 9, 20 μg/ml, 24 h
  IFN-α Donor 9: 8
  IFN-γ Donor 9: 134
[6]; Donor 10, 20 μg/ml, 24 h
  IFN-α Donor 10: 10
  IFN-γ Donor 10: 7
[6]; Donor 11, 20 μg/ml, 24 h
  IFN-α Donor 11: 1
  IFN-γ Donor 11: 56
[6]; Donor 12, 20 μg/ml, 24 h
  IFN-α Donor 12: 15
  IFN-γ Donor 12: 30
[6]; Table 9, donor 28089
  IFN-α: 10 pg/mL
  IFN-γ: 12 pg/mL
[6]; Table 9, donor 28090
  IFN-α: 67 pg/mL
  IFN-γ: 7 pg/mL
[6]; Table 9, mean of donors
  IFN-α mean: 39 pg/mL
  IFN-γ mean: 10 pg/mL
[6]; Table 11, donor 28042
  IFN-α: 39 pg/mL
  IFN-γ: 691 pg/mL
[6]; Table 11, donor 28043
  IFN-α: 0 pg/mL
  IFN-γ: 268 pg/mL
[6]; Table 11, donor 28044
  IFN-α: 11 pg/mL
  IFN-γ: 590 pg/mL
[6]; Table 11, donor 28045
  IFN-α: 64 pg/mL
  IFN-γ: 1306 pg/mL
[6]; Table 11, mean of donors
  IFN-α mean: 29 pg/mL
  IFN-γ mean: 714 pg/mL
[6]; Table 13, donor 28156
  IFN-α: 26 pg/mL
  IFN-γ: 1162 pg/mL
[6]; Table 13, donor 28157
  IFN-α: 142 pg/mL
  IFN-γ: 729 pg/mL
[6]; Table 13, donor 28158
  IFN-α: 78 pg/mL
  IFN-γ: 192 pg/mL
[6]; Table 13, donor 28159
  IFN-α: 20 pg/mL
  IFN-γ: 329 pg/mL
[6]; Table 13, mean of donors
  IFN-α mean: 67 pg/mL
  IFN-γ mean: 603 pg/mL
[6]; donor 28065 (high background), 20 ug/ml, 24 h, + PLGA = premixed with 100 μg/ml cPLGA, 1000 = outside assay limits
  IFN-γ (pg/ml) 28065: 1000 pg/mL
[6]; donor 28065, 20 ug/ml, 24 h, + PLGA = premixed with 100 μg/ml cPLGA
  IFN-α (pg/ml) 28065: 13 pg/mL
[6]; [8]
  IFN-α (pg/ml) 28066: 0 pg/mL
  IFN-γ (pg/ml) 28066: 8 pg/mL
[6]; [9]
  IFN-α (pg/ml) 28067: 22 pg/mL
  IFN-γ (pg/ml) 28067: 57 pg/mL
[6]; [10]
  IFN-α (pg/ml) 28068: 64 pg/mL
  IFN-γ (pg/ml) 28068: 510 pg/mL
[6]; donor 28185, Table 15
  IFN-a: 25 pg/mL
  IFN-g: 189 pg/mL
[6]; donor 28186, Table 15
  IFN-a: 16 pg/mL
  IFN-g: 24 pg/mL
[6]; donor 28187, Table 15
  IFN-a: 4 pg/mL
  IFN-g: 95 pg/mL
[6]; donor 28188, Table 15
  IFN-a: 146 pg/mL
  IFN-g: 11 pg/mL
[6]; [11]
  IFN-α (pg/ml) mean: 71 pg/mL
  IFN-γ (pg/ml) mean: 1164 pg/mL
[6]; [12]
  IFN-α mean: 8
  IFN-γ mean: 56
[6]; [13]
  IFN-α (pg/ml) mean: 25 pg/mL
  IFN-γ (pg/ml) mean: 394 pg/mL
[6]; [14]
  IFN-a (pg/ml) mean: 48 pg/mL
  IFN-g (pg/ml) mean: 80 pg/mL
[6]; mean ×2, Table 15
  IFN-a (pg/ml) ×2: 95 pg/mL
[6]; mean ×4, Table 15
  IFN-g (pg/ml) ×4: 319 pg/mL

## OCCCCCCCCCCCCO [1,12-dihydroxydodecane]
[7]
  solubility: < 5000 µg/mL
